Patent US20090169494A1, “Sunscreen cosmetic composition” (Shiseido Company Ltd, priority 2005, published 2009)

Test: Solubility of the triazine UV absorbent in oil components A-E
Assay type: physicochemical
Conditions: dissolved at 80° C., three days stirring at 0° C., supernatant absorbance at 342.8 nm; FIG. 1
Description: Solubility of 2,4-bis[[4-(2-ethylhexyloxy)-2-hydroxy]phenyl]-6-(4-methoxyphenyl)-1,3,5-triazine in the following oil components A-E was measured.
2,4-bis[[4-(2-ethylhexyloxy)-2-hydroxy]phenyl]-6-(4-methoxyphenyl)-1,3,5-triazine is heated and dissolved at 80° C. in each of the aforementioned oil components A-E. After the temperature naturally cools down to room temperature, a small amount of 2,4-bis[[4-(2-ethylhexyloxy)-2-hydroxy]phenyl]-6-(4-methoxyphenyl)-1,3,5-triazine in powder form is added, followed by three days of stirring and cooling (stirrer) at 0° C. After this, the supernatant solution is quickly sampled before the temperature rises and 30 mg (actual measurement) of it is diluted to 100 mL of ethyl acetate. The absorbance at 342.8 nm of the obtained diluted solution is measured. The obtained absorbance is plotted against a previously prepared calibration curve to determine the solubility.

| SMILES | Solubility of 2,4-bis[[4-(2-ethylhexyloxy)-2-hydroxy]phenyl]-6-(4-methoxyphenyl)-1,3,5-triazine in the oil component |
| --- | --- |
| CCCCC(CC)COc1ccc(-n2nc3ccccc3n2)c(O)c1 (centres unmarked) [Oil component D, 2-[4-(2-ethylhexyloxy)-2-hydroxyphenyl]-2H-benzotriazole] | particularly good |
| CC(C)COc1ccc(-n2nc3ccccc3n2)c(O)c1 [Oil component E, 2-(2-hydroxy-4-isobutoxyphenyl)-2H-benzotriazole] | particularly good |
